Test results as given in patent publication US12390423B2 (priority 2019, dated 2025).

How the values were obtained:
[1] = test system: insulin signaling (pAkt-Ser473), MAPK, AMPK; assay: Immunoblotting (pAkt, pERK1/2, pP38, pAMPKα, PGC-1α) and NAO mitochondrial mass in C2C12 myotubes; type: cell-based, mouse
Experimental: For all ROS studies, INS-1 (832/13) cells and C2C12 myotubes were treated with or without palmitate and FAO inhibitors for 24 h in low glucose cell culture media as described for the FAO assay. After treatment, cells were trypsinized and re-suspended in PBS containing 5 μM of the fluorescent dye MitoSOX® (Molecular Probes, Invitrogen) and allowed to incubate for 5-15 minutes in a humidified atmosphere containing 5% CO2 at 37° C. Cells were then washed in PBS, placed in a 96 well plate and fluorescence was measured by flow cytometry. ROS was quantified by normalizing the mean fluorescence values of live gated cells to vehicle control. Mitochondrial membrane potential (MMP) in INS-1 (832/13) and C2C12 myotubes was measured using the cationic fluorescent dye JC-1 (Molecular Probes). JC-1 accumulates in the mitochondrial matrix in an MMP dependent manner. JC-1 fluoresces green in the cytosol where it exists as a monomer, after entering the mitochondria JC-1 monomers form J aggregates and fluoresce red, thus the red/green fluorescence ratio is used to determine MMP. After all treatments, cells were washed, trypsinized and re-suspended in PBS containing 1 μM JC-1 and allowed to incubate for 5-10 minutes in a humidified atmosphere containing 5% CO2 at 37° C. Cells were then washed in PBS, placed in a 96 well plate and fluorescence was measured by flow cytometry. MMP was quantified by normalizing the mean fluorescence values of live gated cells to vehicle control. Mitochondrial mass was measured using 10-N-nonyl acridine orange (NAO; Enzo Life Sciences, ENZ-52306), which accumulates in the mitochondria in an MMP-independent manner where it binds to cardiolipin in the inner mitochondrial membrane. Cells were treated, washed and collected as described and incubated with 0.35 μM NAO and green fluorescence was measured using flow cytometry. In all analysis (ROS, MMP and mitochondrial mass), forward vs side scatter plots were gated to exclude debris (e.g., dead cells), as cell death is associated with increased ROS and altered membrane potentials. For all cell culture experiments, after drug treatments cells were washed with chilled phosphate-buffered saline (PBS), and lysed in chilled lysis buffer with 1× protease inhibitor cocktail (Sigma). RIPA lysis buffer (Sigma-Aldrich) was used for INS-1 (832/13) cells and muscle lysis buffer for C2C12 myotubes (20 mM HEPES, 10 mM NaCl, 1.5 mM MgCl2, 1 mM DTT, 20% glycerol, and 0.1% Triton-X100). Cells were scraped, mechanically homogenized using a syringe and centrifuged at 14,000×g for 20 min at 4° C. and the supernatants were collected. For preparation of all gastrocnemius muscle lysates, 10 mg frozen tissue (wet weight) was washed in chilled PBS, placed in a dounce homogenizer, lysed in muscle lysis buffer and centrifuged at 14,000×g for 20 min at 4° C. and the supernatant was collected. Protein content for cell and tissue lysates was measured using the BCA protein assay kit (ThermoFisher) according to manufacturer's protocol. Thirty μg protein lysates were prepared in loading buffer and immunoblotting was performed by heating lysates for 5 minutes at 95° C. and subjecting them to gel electrophoresis on 10% SDS-polyacrylamide gels at 150 V for 75 minutes. Using a semi-dry transfer apparatus (Bio-Rad) the gels were then transferred at 25V for 45 minutes to a PVDF membrane and blocked with 5% BSA (Sigma) in tris-buffered saline-tween (TBS-T) for 1 hour. […]

[2] = test system: INS-1 (832/13) cells; assay: Glucose oxidation (D-[14C(U)]-glucose) in INS-1 (832/13) cells; type: cell-based, rat; conditions: 25 μM AvoB, lipotoxic conditions, vs palmitate only
Experimental: C2C12 myotubes and INS-1 (832/13) cells treated as in the FAO assays described above and then incubated with D-[^14C(U)]-glucose (0.58 μC/mL) and unlabeled glucose (final glucose concentration 200 μM) for 4 h subsequent to which [^14C]—CO2 (representing complete glucose oxidation) and ASMs (representing incomplete glucose oxidation) were captured and quantified as described in the FAO method. For C2C12 myotubes, glucose oxidation and uptake was measured with and without a 30 min pre-incubation with 100 nM insulin to determine basal and insulin-mediated glucose oxidation or uptake, respectively.

[3] = test system: C2C12 myotubes; assay: Mitochondrial ROS (MitoSOX) and membrane potential (JC-1) in C2C12 myotubes; type: cell-based, mouse; conditions: 25 μM AvoB, 0.5 mM palmitate, 24 h
Experimental: For all ROS studies, INS-1 (832/13) cells and C2C12 myotubes were treated with or without palmitate and FAO inhibitors for 24 h in low glucose cell culture media as described for the FAO assay. After treatment, cells were trypsinized and re-suspended in PBS containing 5 μM of the fluorescent dye MitoSOX® (Molecular Probes, Invitrogen) and allowed to incubate for 5-15 minutes in a humidified atmosphere containing 5% CO2 at 37° C. Cells were then washed in PBS, placed in a 96 well plate and fluorescence was measured by flow cytometry. ROS was quantified by normalizing the mean fluorescence values of live gated cells to vehicle control. Mitochondrial membrane potential (MMP) in INS-1 (832/13) and C2C12 myotubes was measured using the cationic fluorescent dye JC-1 (Molecular Probes). […] JC-1 fluoresces green in the cytosol where it exists as a monomer, after entering the mitochondria JC-1 monomers form J aggregates and fluoresce red, thus the red/green fluorescence ratio is used to determine MMP. […] Cells were then washed in PBS, placed in a 96 well plate and fluorescence was measured by flow cytometry. MMP was quantified by normalizing the mean fluorescence values of live gated cells to vehicle control. […] Cells were treated, washed and collected as described and incubated with 0.35 μM NAO and green fluorescence was measured using flow cytometry. […]

With avocatin B [AvoB] the “Palmitate induced phosphorylation of MAPK ERK1/2 and P38” value ([1]; 25 μM AvoB, 0.5 mM palmitate, 24 h) was “reduce palmitate induced phosphorylation”, the “AMPK activation (pAMPKα-Thr172)” value ([1]; 25 μM AvoB, 24 h) was “independent of AMPK activation” and the “Mitochondrial biogenesis (PGC-1α protein, NAO dye)” value ([1]; 25 μM AvoB, 24 h) was “independent”. For the same substance, the “Insulin signaling (insulin stimulated phosphorylation of AKT Ser473)” value ([1]; 0.5 mM palmitate 24 h, 100 nM insulin 30 min, AvoB 25 μM, DCA 1 mM, TRI 25 μM) was “restore the suppressive effects of lipotoxicity on insulin stimulated phosphorylation of AKT^Ser473”, the “Glucose oxidation (D-[14C(U)]-glucose to CO2)” value [2] was “greater glucose oxidation compared to cells treated with palmitate only” and the “Mitochondrial membrane potential (MMP, JC-1)” value [3] was “lowers palmitate induced increases”. The “Mitochondrial superoxide levels (MitoSOX Red)” value [3] was “lowers palmitate induced increases in mitochondrial superoxide levels”.
